Measurements reported in ChEMBL document CHEMBL1130465, “Peptidic prodrugs of novel aminomethyl-THF 1-methylcarbapenems” (1997).
Converted amounts (≈) assume the structure as drawn.

Key:
Format in all cases: functional
[1] = system: Acinetobacter calcoaceticus; test: In vitro antimicrobial activity against Acinetobacter calcoaceticus GC 756 strain
Citrobacter freundii = test: In vitro antimicrobial activity against Citrobacter freundii GC 2211 strain
Enterococcus faecium = test: In vitro antimicrobial activity against Enterococcus faecium GC 1182 strain
Enterococcus faecalis = test: In vitro antimicrobial activity against Enterococcus faecalis GC 842 strain
Escherichia coli [2] = test: In vitro antimicrobial activity against Escherichia coli ATCC 25922 strain
Escherichia coli [3] = test: In vitro antimicrobial activity against Escherichia coli GC 1792 strain
Escherichia coli [4] = test: In vitro antimicrobial activity against Escherichia coli GC 2205 strain
Enterobacter cloacae = test: In vitro antimicrobial activity against Enterobacter cloacae GC 2209 strain
Mus musculus [5] = test: Tested for oral activity against Staphylococcus aureus smith infection in mice after single oral dose(SOD)
Morganella morganii = test: In vitro antimicrobial activity against Morganella morganii GC 2213 strain
Pseudomonas aeruginosa [6] = test: In vitro antimicrobial activity against Pseudomonas aeruginosa ATCC 27853 strain
Pseudomonas aeruginosa [7] = test: In vitro antimicrobial activity against Pseudomonas aeruginosa GC 1544 strain
Staphylococcus aureus [8] = test: In vitro antimicrobial activity against Staphylococcus aureus GC 2220 strain
Staphylococcus aureus [9] = test: In vitro antimicrobial activity against Staphylococcus aureus ATCC 29213 strain
[10] = system: Stenotrophomonas maltophilia; test: In vitro antimicrobial activity against Xanthomonas maltophilia GC 562 strain
[11] = Ratio of ED50 of single oral dose to ED50 of single subcutaneous dose against Staphylococcus aureus smith infection in mice
Mus musculus [12] = test: Tested for oral activity against Staphylococcus aureus smith infection in mice after single subcutaneous dose(SSC)
Mus musculus [13] = organism: Mus musculus; test: animal or person
Description: Tested for oral activity against Escherichia coli #311 infection in mice after single oral dose(SOD)

Mus musculus [14] = organism: Mus musculus; test: animal or person; remark: listed apart in the source
Description: Tested for oral activity against Escherichia coli #311 infection in mice after single subcutaneous dose(SSC)

Mus musculus [15] = test: Tested for oral activity against Staphylococcus aureus smith infection in mice after single subcutaneous dose(SSC); 0.42-0.83
[16] = Ratio of ED50 of single oral dose to ED50 of single subcutaneous dose against Staphylococcus aureus smith infection in mice; 16-8
[17] = Acinetobacter calcoaceticus, read-out: MIC
[18] = Citrobacter freundii, read-out: MIC
[19] = Enterococcus faecium, read-out: MIC
[20] = Enterococcus faecalis, read-out: MIC
[21] = Escherichia coli, read-out: MIC
[22] = Mus musculus, po, read-out: ED50
[23] = Morganella morganii, read-out: MIC
[24] = Pseudomonas aeruginosa, ATCC 27853, read-out: MIC
[25] = Pseudomonas aeruginosa, read-out: MIC
[26] = Staphylococcus aureus, read-out: MIC

Structure (SMILES)	MIC [1, 17] [µg/mL]	MIC (Citrobacter freundii; [18]) [µg/mL]	MIC (Enterococcus faecium; [19]) [µg/mL]	MIC (Enterococcus faecalis; [20]) [µg/mL]	MIC (Escherichia coli [2]) [µg/mL]	MIC (Escherichia coli [3]; [21]) [µg/mL]	MIC (Escherichia coli [4]) [µg/mL]	MIC (Enterobacter cloacae) [µg/mL]	MIC (Morganella morganii; [23]) [µg/mL]	MIC (Pseudomonas aeruginosa [6]; [24]) [µg/mL]	MIC (Pseudomonas aeruginosa [7]; [25]) [µg/mL]	MIC (Staphylococcus aureus [8]; [26]) [µg/mL]	MIC (Staphylococcus aureus [9]) [µg/mL]	MIC [10] [µg/mL]	ED50 (Mus musculus [5]; [22]) [mg/kg]	Ratio [11]	ED50 (Mus musculus [12]; Mus musculus, read-out: ED50) [mg/kg]	ED50 (Mus musculus [13]; [22]) [mg/kg]	ED50 (Mus musculus [14]; Mus musculus, read-out: ED50) [mg/kg]	also measured
C[C@H](N)C(=O)NC[C@H]1OCC[C@H]1SC1=C(C(=O)O)N2C(=O)[C@H]([C@@H](C)O)C2[C@H]1C (stereo partly specified)	8 (≈ 19.3 µM)	1 (≈ 2.42 µM)	> 128	2 (≈ 4.84 µM)	< 0.06	0.12 (≈ 0.29 µM)	< 0.06	0.25 (≈ 0.605 µM)	1 (≈ 2.42 µM)	64 (≈ 155 µM)	64 (≈ 155 µM)	8 (≈ 19.3 µM)	< 0.06	> 128	6.6	–	–	–	–	ED50 (Mus musculus [15]): 0.42 mg/kg; Ratio [16]: >16
C[C@H]1C(SC2COC(CN)C2)=C(C(=O)O)N2C(=O)[C@H]([C@@H](C)O)C12 (stereo in doubt; cis)	–	–	–	–	–	–	–	–	–	–	–	–	–	–	–	22	–	–	–	MIC [1]: 20 µg/mL (≈ 58.4 µM); MIC (Citrobacter freundii): <0.06 µg/mL; MIC (Enterococcus faecium): 128 µg/mL (≈ 374 µM); MIC (Enterococcus faecalis): 2 µg/mL (≈ 5.84 µM); MIC (Escherichia coli [3]): <0.06 µg/mL; ED50 (Mus musculus [13]): 3.5 mg/kg; ED50 (Mus musculus [14]): 0.28 mg/kg; ED50 (Mus musculus [5]): 1.1 mg/kg; MIC (Morganella morganii): 0.5 µg/mL (≈ 1.46 µM); MIC (Pseudomonas aeruginosa [6]): 8 µg/mL (≈ 23.4 µM); MIC (Pseudomonas aeruginosa [7]): 16 µg/mL (≈ 46.7 µM); MIC (Staphylococcus aureus [8]): 4 µg/mL (≈ 11.7 µM); ED50 (Mus musculus [12]): 0.05 mg/kg
C[C@H]1C(SC2COC(CN)C2)=C(C(=O)O)N2C(=O)[C@H]([C@@H](C)O)C12 (stereo in doubt; trans)	–	0.06 (≈ 0.175 µM)	128 (≈ 374 µM)	2 (≈ 5.84 µM)	< 0.06	0.06 (≈ 0.175 µM)	< 0.06	< 0.06	0.25 (≈ 0.73 µM)	4 (≈ 11.7 µM)	8 (≈ 23.4 µM)	8 (≈ 23.4 µM)	< 0.06	> 128	1.7	16	–	3.7	0.27	MIC [1]: 1 µg/mL (≈ 2.92 µM); ED50 (Mus musculus [12]): 0.11 mg/kg
C[C@@H](O)[C@H]1C(=O)N2C(C(=O)O)=C(SCCNC=N)C[C@H]12.O [IMIPENEM]	0.25	0.25	64	1	0.12	< 0.06	0.12	< 0.06	1	1	16	1	< 0.06	> 128	–	–	–	–	–	–

Continued, in another order:

MIC [1, 17] [µg/mL]	MIC (Citrobacter freundii; [18]) [µg/mL]	MIC (Enterococcus faecium; [19]) [µg/mL]	MIC (Enterococcus faecalis; [20]) [µg/mL]	MIC (Escherichia coli [2]) [µg/mL]	MIC (Escherichia coli [3]; [21]) [µg/mL]	MIC (Escherichia coli [4]) [µg/mL]	MIC (Enterobacter cloacae) [µg/mL]	MIC (Morganella morganii; [23]) [µg/mL]	MIC (Pseudomonas aeruginosa [6]; [24]) [µg/mL]	MIC (Pseudomonas aeruginosa [7]; [25]) [µg/mL]	MIC (Staphylococcus aureus [8]; [26]) [µg/mL]	MIC (Staphylococcus aureus [9]) [µg/mL]	MIC [10] [µg/mL]	Structure (SMILES)	ED50 (Mus musculus [5]; [22]) [mg/kg]	Ratio [11]	ED50 (Mus musculus [12]; Mus musculus, read-out: ED50) [mg/kg]	ED50 (Mus musculus [13]; [22]) [mg/kg]	ED50 (Mus musculus [14]; Mus musculus, read-out: ED50) [mg/kg]	also measured
16 (≈ 38.7 µM)	4 (≈ 9.67 µM)	> 128	16 (≈ 38.7 µM)	0.25 (≈ 0.605 µM)	0.25 (≈ 0.605 µM)	0.25 (≈ 0.605 µM)	1 (≈ 2.42 µM)	2 (≈ 4.84 µM)	64 (≈ 155 µM)	128 (≈ 310 µM)	8 (≈ 19.3 µM)	0.5 (≈ 1.21 µM)	> 128	C[C@@H](N)C(=O)NC[C@@H]1COC[C@@H]1SC1=C(C(=O)O)N2C(=O)[C@H]([C@@H](C)O)C2[C@H]1C (stereo partly specified)	4.5	41	0.11	–	–	–
64 (≈ 131 µM)	8 (≈ 16.3 µM)	128 (≈ 261 µM)	1 (≈ 2.04 µM)	0.25 (≈ 0.511 µM)	0.5 (≈ 1.02 µM)	0.03 (≈ 0.0613 µM)	4 (≈ 8.17 µM)	4 (≈ 8.17 µM)	64 (≈ 131 µM)	128 (≈ 261 µM)	4 (≈ 8.17 µM)	0.25 (≈ 0.511 µM)	> 128	C[C@H]1C(S[C@@H]2CCO[C@@H]2CNC(=O)[C@H](N)Cc2ccccc2)=C(C(=O)O)N2C(=O)[C@H]([C@@H](C)O)C12 (stereo partly specified)	0.28	4.7	0.06	1.2	0.48	–
16 (≈ 36.2 µM)	1 (≈ 2.26 µM)	> 128	2 (≈ 4.53 µM)	≤ 0.06	0.12 (≈ 0.272 µM)	≤ 0.06	0.5 (≈ 1.13 µM)	1 (≈ 2.26 µM)	32 (≈ 72.5 µM)	128 (≈ 290 µM)	8 (≈ 18.1 µM)	0.25 (≈ 0.566 µM)	> 128	CC(C)[C@@H](N)C(=O)NC[C@H]1OCC[C@H]1SC1=C(C(=O)O)N2C(=O)[C@H]([C@@H](C)O)C2[C@H]1C (stereo partly specified)	0.1	1.4	0.07	0.31	0.29	–
8 (≈ 19.3 µM)	2 (≈ 4.84 µM)	128 (≈ 310 µM)	2 (≈ 4.84 µM)	< 0.06	< 0.06	< 0.06	0.25 (≈ 0.605 µM)	1 (≈ 2.42 µM)	8 (≈ 19.3 µM)	32 (≈ 77.4 µM)	32 (≈ 77.4 µM)	0.5 (≈ 1.21 µM)	> 128	C[C@@H](N)C(=O)NC[C@H]1COC[C@H]1SC1=C(C(=O)O)N2C(=O)[C@H]([C@@H](C)O)C2[C@H]1C (stereo partly specified)	4	36	0.11	–	–	–
